Drawing on US20170334899A1, “AMINO-SUBSTITUTED ISOTHIAZOLES” (Bayer Pharma Aktiengesellschaft, priority 2014, published 2017), this text covers IC50 for 3 compounds.

What all share (format): cell-based
For assay [1], the system named is human cervical tumor cell line HeLa (ATCC CCL-2). As to the kind of experiment: SAC-Formation - Nocodazole-Induced Assay. To be noted: Homo sapiens, HeLa, 24 h, HeLa cells, nocodazole 0.1 μg/ml together with test compound, decrease of mitotic cells (phospho-histone H3 Ser10). Summed up: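 HeLa cells, plated overnight, were treated 24 h at 37 °C with nocodazole (0.1 μg/ml final) plus test compound (0.005–20 μM, 0.5% DMSO) added at the same time. After fixation, anti-phospho-histone H3 Ser10 and Hoechst staining gave the mitotic cell fraction by imaging. Values came from four-parameter Hill fits.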

Assay [2] shares this test system. The assay is described as follows: SAC-Formation - Paclitaxel-Induced Assay. To be noted: Homo sapiens, HeLa, 24 h, HeLa cells, paclitaxel 0.05 μM, test range 0.005 μM-20 μM, read-out: IC50 [mol/l] SAC-Formation - Paclitaxel-Induced Assay. The gist of the method: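 HeLa cells incubated overnight at 37° C, then given paclitaxel (0.05 μM final) plus test compound (0.005–20 μM, 0.5% DMSO) together for 24 h at 37° C. Fixed cells stained for phospho-histone H3 Ser10 (mitotic cells) and Hoechst 33342 (cell count); imaging-derived mitotic index fitted by four-parameter Hill equation.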

In the next assay the test system is HeLa. The assay is described as follows: Proliferation assay (crystal violet), HeLa. To be noted: Homo sapiens, HeLa, 96 h, HeLa cells; 4 days incubation; crystal violet staining; read-out: IC50 inhibition of proliferation, HeLa. Summed up: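 Seed 1000–5000 cells/well, 10% FCS; 24 h later replace medium and add compound (0.001–10 μM, 0.5% DMSO); incubate 4 d; glutaraldehyde fix, 0.1% crystal violet pH 3.0, elute with 10% acetic acid; A595; 4-parameter IC50.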

SMILES strings stand for the structures.

For the compound `Cc1nsc(Nc2cnc3ccccc3n2)c1C(=O)Nc1cccc(C(=O)N(C)CCN(C)C)c1` [Example 58, N-(3-{[2-(Dimethylamino)ethyl](methyl)carbamoyl}phenyl)-3-methyl-5-(quinoxalin-2-ylamino)-1,2-thiazole-4-carboxamide], the IC50 stood at 3000 nM in assay [1], 7.3 µM in assay [2] and 10 µM in the assay on HeLa.

With `Cc1nsc(Nc2cnc3ccccc3n2)c1C(=O)Nc1cccc(C(=O)N2CCC(N3CCCCC3)CC2)c1` [Example 61, N-[3-(1,4′-Bipiperidin-1′-ylcarbonyl)phenyl]-3-methyl-5-(quinoxalin-2-ylamino)-1,2-thiazole-4-carboxamide], the IC50 in assay [1] is 31 nM; in assay [2], 0.28 µM; with HeLa, 10 µM.

As for `Cc1nsc(Nc2cnc3ccccc3n2)c1C(=O)Nc1cccc(C(=O)N2CCN(CC(=O)N(C)C)CC2)c1` [Example 92, N-[3-({4-[2-(Dimethylamino)-2-oxoethyl]piperazin-1-yl}-carbonyl)phenyl]-3-methyl-5-(quinoxalin-2-ylamino)-1,2-thiazole-4-carboxamide], the results for the IC50 (in assay [1]; in assay [2]; with HeLa) were 940 nM, 20 µM and 10 µM, respectively.
